{
  "source": "ChEMBL document CHEMBL2074005",
  "about": "“Use of the anionic dye carboxy-2',7'-dichlorofluorescein for sensitive flow cytometric detection of multidrug resistance-associated protein activity” (Int J Oncol, 1999)",
  "biological_target": "Multidrug resistance-associated protein 1 (Homo sapiens, UniProt P33527)",
  "sequence (P33527 whole entry)": "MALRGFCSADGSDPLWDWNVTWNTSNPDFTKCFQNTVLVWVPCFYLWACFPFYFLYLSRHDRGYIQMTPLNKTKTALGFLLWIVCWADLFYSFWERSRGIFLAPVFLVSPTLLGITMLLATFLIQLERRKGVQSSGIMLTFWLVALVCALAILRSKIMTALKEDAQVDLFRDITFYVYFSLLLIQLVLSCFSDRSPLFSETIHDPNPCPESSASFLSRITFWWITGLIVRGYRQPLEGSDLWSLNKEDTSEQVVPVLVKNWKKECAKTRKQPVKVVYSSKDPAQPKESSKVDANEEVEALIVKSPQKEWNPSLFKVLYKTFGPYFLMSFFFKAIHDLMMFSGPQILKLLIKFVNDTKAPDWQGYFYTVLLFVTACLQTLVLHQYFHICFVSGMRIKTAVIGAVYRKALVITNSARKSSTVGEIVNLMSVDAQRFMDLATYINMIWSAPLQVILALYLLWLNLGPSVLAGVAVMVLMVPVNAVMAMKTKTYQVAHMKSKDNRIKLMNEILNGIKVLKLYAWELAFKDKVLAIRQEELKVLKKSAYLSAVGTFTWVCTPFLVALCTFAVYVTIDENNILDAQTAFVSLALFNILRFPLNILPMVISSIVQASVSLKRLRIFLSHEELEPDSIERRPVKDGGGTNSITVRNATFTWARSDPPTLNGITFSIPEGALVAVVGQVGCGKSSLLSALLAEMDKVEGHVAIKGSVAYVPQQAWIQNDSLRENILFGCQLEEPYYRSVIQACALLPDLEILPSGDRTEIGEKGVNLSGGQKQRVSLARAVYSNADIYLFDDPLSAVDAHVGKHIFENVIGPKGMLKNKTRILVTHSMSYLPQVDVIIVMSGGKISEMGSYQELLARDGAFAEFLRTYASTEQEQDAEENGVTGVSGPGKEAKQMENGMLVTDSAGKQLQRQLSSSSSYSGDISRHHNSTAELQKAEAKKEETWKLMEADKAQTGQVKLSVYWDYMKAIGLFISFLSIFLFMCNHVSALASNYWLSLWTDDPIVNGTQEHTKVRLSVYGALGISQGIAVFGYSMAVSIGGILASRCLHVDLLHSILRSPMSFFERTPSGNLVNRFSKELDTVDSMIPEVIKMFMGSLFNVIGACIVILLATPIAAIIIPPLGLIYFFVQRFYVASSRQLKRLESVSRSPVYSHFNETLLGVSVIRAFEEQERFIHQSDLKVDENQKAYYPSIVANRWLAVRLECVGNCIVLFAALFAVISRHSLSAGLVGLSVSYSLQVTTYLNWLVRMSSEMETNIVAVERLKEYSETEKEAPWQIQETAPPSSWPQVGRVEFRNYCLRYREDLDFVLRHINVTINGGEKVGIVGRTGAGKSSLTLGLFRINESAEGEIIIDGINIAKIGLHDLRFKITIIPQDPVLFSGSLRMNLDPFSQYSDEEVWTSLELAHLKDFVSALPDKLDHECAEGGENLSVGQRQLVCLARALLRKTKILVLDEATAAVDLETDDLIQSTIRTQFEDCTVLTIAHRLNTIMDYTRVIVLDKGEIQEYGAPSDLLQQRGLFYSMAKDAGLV",
  "experiment": "TP_TRANSPORTER: efflux in GLC4/sb30 cells",
  "assay_type": "functional, cell-based",
  "data": [
    {"smiles": "O=C(O)c1ccc(C(=O)O)c(-c2c3cc(Cl)c(=O)cc-3oc3cc(O)c(Cl)cc23)c1.O=C(O)c1cccc(C(=O)O)c1-c1c2cc(Cl)c(=O)cc-2oc2cc(O)c(Cl)cc12", "values": [
      {"measurement": "Activity", "result": "substrate [+]"}
    ]}
  ]
}
